Reference: article PMC5371824, “Phosphatidylinositol (4,5)-bisphosphate dynamically regulates the K2P background K^+ channel TASK-2” (Scientific Reports, 2017)
Substitutions are numbered along the chain they refer to.

What was measured:
Type in all cases: biochemical
TASK-2-H327C = target: T1, TASK-2-H327C (Mus musculus, UniProt F6V9U5, H327C); assay: Excised inside-out patch recording, TASK-2-H327C mutant; settings: 1 mM, brief intracellular exposure in the presence of TPeA
T1 construct: expressed in transfected cells; host or cells: HEK-293
T1 sequence (F6V9U5 1-502 H327C): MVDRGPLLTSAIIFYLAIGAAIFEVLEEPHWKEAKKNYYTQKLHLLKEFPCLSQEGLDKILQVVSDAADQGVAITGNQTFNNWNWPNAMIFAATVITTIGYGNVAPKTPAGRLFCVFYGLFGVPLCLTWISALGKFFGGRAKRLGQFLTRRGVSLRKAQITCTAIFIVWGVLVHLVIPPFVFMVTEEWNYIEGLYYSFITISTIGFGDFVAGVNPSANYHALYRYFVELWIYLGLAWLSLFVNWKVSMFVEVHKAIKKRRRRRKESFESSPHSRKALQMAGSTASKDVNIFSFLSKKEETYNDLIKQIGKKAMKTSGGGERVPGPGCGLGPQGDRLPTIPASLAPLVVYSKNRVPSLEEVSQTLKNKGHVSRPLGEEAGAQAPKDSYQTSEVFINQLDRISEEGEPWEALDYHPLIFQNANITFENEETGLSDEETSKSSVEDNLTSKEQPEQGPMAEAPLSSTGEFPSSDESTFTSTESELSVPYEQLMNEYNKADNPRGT
Procedure: (§1) Figure 6 Scanning of potential sites of interaction of TASK-2 with PI(4,5)P2 by cysteine mutagenesis of intracellular basic residues. (A) Schematic representation of TASK-2 topology showing the sequences of segments of the protein predicted to be intracellular or intracellular-facing. Basic residues are highlighted in red. (B) Recording from an excised inside-out patch of membrane taken from a HEK-293 cell over-expressing TASK-2. The patch was held at −60 mV in the presence of 1 mM ATP. At the intervals indicated by the boxes the intracellular aspect of the membrane was exposed to 300 μM Neomycin and then to 100 μM TPeA. At the end of the TPeA period the patch was additionally exposed to 1 mM MTSET as shown by the black box. (C and D) experiments as in (B), but with inside-out membrane patches obtained from cells expressing the mutants TASK-2-H327C and TASK-2-K297C respectively. In D the reducing agent DTT was also added at 2 mM. (E) Summary of experiments comparing the current before and after treatment with MTSET. […]
(§2) Recordings in the inside-out isolated patch configuration were performed in the gap-free mode at −60 mV. […] Traces shown are prints from crude Clampfit screen shots and quantification was done using the average currents were calculated at intervals using Clampfit after baseline adjustment.

TASK-2-K297C = target: T2, TASK-2-K297C (Mus musculus, UniProt F6V9U5, K297C); assay: Excised inside-out patch recording, TASK-2-K297C mutant; set-up: key to MTSET effect: ✓ under “MTSET effect” indicates a significant increase in current after treatment with the methanesulfonate reagent; — in all cases stands for no significant effect
T2 construct: expressed in transfected cells; host or cells: HEK-293
T2 sequence (F6V9U5 1-502 K297C): T1 sequence (F6V9U5 1-502 H327C) with K297C, C327H
Procedure: Figure 6 Scanning of potential sites of interaction of TASK-2 with PI(4,5)P2 by cysteine mutagenesis of intracellular basic residues. (A) Schematic representation of TASK-2 topology showing the sequences of segments of the protein predicted to be intracellular or intracellular-facing. Basic residues are highlighted in red. (B) Recording from an excised inside-out patch of membrane taken from a HEK-293 cell over-expressing TASK-2. The patch was held at −60 mV in the presence of 1 mM ATP. At the intervals indicated by the boxes the intracellular aspect of the membrane was exposed to 300 μM Neomycin and then to 100 μM TPeA. At the end of the TPeA period the patch was additionally exposed to 1 mM MTSET as shown by the black box. (C and D) experiments as in (B), but with inside-out membrane patches obtained from cells expressing the mutants TASK-2-H327C and TASK-2-K297C respectively. In D the reducing agent DTT was also added at 2 mM. (E) Summary of experiments comparing the current before and after treatment with MTSET.
Mus musculus TASK-2 (GenBank accession No. AF319542) plasmid was that obtained from mouse kidney. The cDNAs was subcloned into the pCR3.1 vector. Mutations were made by site-directed mutagenesis into the pCR3.1 vector as previously described[69] and confirmed by sequencing. HEK-293 cells were cultured in Dulbecco’s modified Eagle’s medium (DMEM) and F12 Ham’s medium at a 1:1 ratio and supplemented with 10% fetal calf serum at 37 °C in 5% CO2. For electrophysiological experiments, transient transfections were performed by electroporation, using CD8 cotransfection to identify effectively transfected cells. […] Experiments were performed 4–8 h after electroporation. […]
as §2

TASK-2-R4C = target: T3, TASK-2-R4C (Mus musculus, UniProt F6V9U5, R4C); assay: Excised inside-out patch recording, TASK-2-R4C mutant; set-up: key to MTSET effect: ✓ under “MTSET effect” indicates a significant increase in current after treatment with the methanesulfonate reagent; — in all cases stands for no significant effect
T3 construct: expressed in transfected cells; host or cells: HEK-293
T3 sequence (F6V9U5 1-502 R4C): T1 sequence (F6V9U5 1-502 H327C) with R4C, C327H
Procedure: as §1, §2

[1] = 1 mM, in the presence of TPeA, inside-out patch

C[N+](C)(C)CCSS(C)(=O)=O.[Cl-] [MTSET, [2-(trimethylammonium)ethyl] methanethiosulfonate chloride]
Effect of MTSET on TASK-2-H327C channel activity (TASK-2-H327C): Neither WT nor H327C channel activity is affected | Effect of MTSET on TASK-2-K297C activity (TASK-2-K297C; [1]): markedly enhanced | MTSET effect (TASK-2-K297C; mutation K297C): ✓ | Effect of MTSET on TASK-2-R4C activity (TASK-2-R4C; [1]): not affected | MTSET effect (TASK-2-R4C; mutation R4C): —
